The source of these data is ChEMBL document CHEMBL1127948, “Synthesis and in vitro cytotoxicity of diastereoisomerically modified dolastatin 15 analogues” (Bioorg Med Chem Lett, 1994).

Assay [1] concerns Jurkat. The assay is described as follows: In vitro growth factor-independent proliferation against human leukemia T cell line jurkat was determined. Format: functional, cell-based.
For assay [2], the system named is CTLL. The assay is described as follows: In vitro interleukin-2-dependent proliferation of the murine cytotoxlc T cell line (CTLL) was determined. Format: functional, cell-based, Mus musculus.
Assay [3] deals with L1210. The assay is described as follows: In vitro growth factor-independent proliferation against murine leukemia L1210 was determined. The assay is classed as functional, cell-based, Mus musculus.
In assay [4] the test system is Osteoclast-like. Briefly: In vitro growth factor-dependent proliferation against murine bone marrow cell was determined. Format: functional, cell-based, Mus musculus.
Assay [5] deals with Lymphoma cell line. The assay is described as follows: Antiproliferative effect against human lymphoma cells was determined; (0.012 to 0.12 nM). The assay is classed as functional, cell-based.
In assay [6] the test system is Panel leukemia (Carcinoma cell lines). Briefly: Antiproliferative effect against continuous human leukemia cell lines and peripheral blood cells from patients with acute myeloid leukemia was determined; (0.1 to 1 nM). Format: functional, cell-based.

As for `COC1=CC(=O)N(C(=O)[C@H](OC(=O)[C@@H]2CCCN2C(=O)[C@@H]2CCCN2C(=O)[C@H](C(C)C)N(C)C(=O)[C@@H](NC(=O)[C@H](C(C)C)N(C)C)C(C)C)C(C)C)[C@@H]1Cc1ccccc1`, the IC50 in assay [1] is 700 nM; in assay [2] (Mus musculus, CTLL), 400 nM; in assay [3] (Mus musculus, L1210) it was 1.78 nM; in assay [4] (Mus musculus, Osteoclast-like), 120 nM.
Taken in the same sequence, the figures for `COC1=CC(=O)N(C(=O)[C@H](OC(=O)[C@@H]2CCCN2C(=O)[C@@H]2CCCN2C(=O)[C@H](C(C)C)N(C)C(=O)[C@@H](NC(=O)[C@H](C(C)C)N(C)C)C(C)C)C(C)C)[C@H]1Cc1ccccc1` (stereo in doubt; form 1) were 10 nM, 8 nM, 0.3 nM and 40 nM.
For the molecule `COC1=CC(=O)N(C(=O)[C@H](OC(=O)[C@@H]2CCCN2C(=O)[C@@H]2CCCN2C(=O)[C@H](C(C)C)N(C)C(=O)[C@@H](NC(=O)[C@H](C(C)C)N(C)C)C(C)C)C(C)C)[C@H]1Cc1ccccc1` (stereo in doubt; form 2), the values for the IC50 in assay [2] (ctll), in assay [3] (l1210) and in assay [4] (osteoclast-like) were 10 nM, 0.31 nM and 50 nM, respectively.
For `COC1=CC(=O)N(C(=O)[C@@H](OC(=O)[C@@H]2CCCN2C(=O)[C@@H]2CCCN2C(=O)[C@H](C(C)C)N(C)C(=O)[C@@H](NC(=O)[C@H](C(C)C)N(C)C)C(C)C)C(C)C)[C@H]1Cc1ccccc1` [DOLASTATIN 15], the half-inhibitory concentration (IC50) in assay [5] was found to be 0.012 nM; in assay [1], 5 nM; in assay [2] (Mus musculus, CTLL) it was 3 nM; in assay [3] (Mus musculus, L1210) it was 0.15 nM; in assay [4] (Mus musculus, Osteoclast-like) it was 17 nM; in assay [6] it was 0.1 nM.

The IC50 is the concentration that gives 50% inhibition.
